{"source": "patent US12281084B2", "about": "“Acetyl-CoA synthetase 2 (ACSS2) inhibitors and methods using same” (The Wistar Institute, priority 2019, dated 2025)", "tested_on": "BT474 cells", "experiment": "13C2-acetate tracing in BT474 cells", "assay_type": "cell-based, human", "protocol": "All metabolomic experiments were performed in serum-like modified Eagle's medium (SMEM). SMEM contains 54 different nutrients that are found in the bloodstream at concentrations that are physiologically relevant to humans. SMEM was supplemented with 10% or 1% fetal bovine serum (FBS; Life Technologies). Cells were grown in normoxia (atmospheric oxygen) or hypoxia (1% oxygen) while being incubated in uniformly labeled ^13C2-acetate (0.100 mM; Cambridge Isotope Laboratories). Lengths of incubation are described in the figure legends. For extraction of metabolites from cultured cells, SMEM medium was aspirated and cells were washed once in ice-cold PBS. Metabolites were extracted by adding a solution of LC-MS grade methanol/acetonitrile/water (5:3:2) to the well. Plates were incubated at 4° C. for 5 minutes on a rocker and then the extraction solution was collected. The metabolite extract was cleared by centrifugation at 15,000×g for 10 minutes at 4° C. Supernatants were transferred to LC-MS silanized glass vials with PTFE caps and either run immediately on the LC-MS or stored at −80° C. […]\nLC-MS analysis was performed on a Q Exactive Hybrid Quadrupole-Orbitrap HF-X MS (ThermoFisher Scientific) equipped with a HESI II probe and coupled to a Vanquish Horizon UHPLC system (ThermoFisher Scientific). […] Samples were analyzed in full MS scan with polarity switching at scan range 65 to 975 m/z; 120,000 resolution; automated gain control (AGC) target of 1E6; and maximum injection time (max IT) of 100 milliseconds. Identification and quantitation of metabolites was performed using an annotated compound library and TraceFinder 4.1 software. […]\nThe ^13C2-acetate tracer studies were repeated in BT474 and MDA-MB-468 cells and polar metabolites were isolated in order to analyze carbon-13 labeling of the cytosolic metabolite UDP-N-acetylglucosamine (UDP-GlcNAc) and the mitochondrial metabolite citrate. Citrate is a readout of ACSS1 and ACSS3 activity in the cells since they are the mitochondria localized AcCoA synthetase family members (FIG. 11A). […]", "data": [{"molecule": "CCn1c(C(O)(c2ccccc2)c2ccccc2)nc2ccc(C(=O)NC[C@@H](C)O)cc21", "note": "[VY-3-135, (R)-1-ethyl-2-(hydroxydiphenylmethyl)-N-(2-hydroxypropyl)-1H-benzo[d]imidazole-6-carboxamide]", "values": [{"measurement": "incorporation of 13C2-acetate into UDP-GlcNAc", "setting": "BT474 cells (FIG. 11C)", "result": "able to block incorporation of ^13C2-acetate into UDP-GlcNAc to nearly the levels of unlabeled cells"}, {"measurement": "incorporation of 13C2-acetate into citrate", "setting": "BT474 cells, H1, 24 hr (FIG. 2D), readout of ACSS1 and ACSS3", "result": "did not decrease incorporation of ^13C2-acetate into citrate"}, {"measurement": "use of acetate as a substrate for fatty acid synthesis (13C2-acetate into palmitate)", "setting": "BT474 cells, hypoxia and low lipid medium, 24 hours (FIG. 2C)", "result": "markedly inhibits the use of acetate as a substrate for fatty acid synthesis at low nanomolar concentrations"}]}]}
